Where two headings read alike, the source gives them in different places.
How the values were obtained:
ROCK2 = biological target: T1, ROCK2 (Homo sapiens, UniProt O75116); assay: ROCK2 kinase binding affinity, DiscoverX KINOMEscan KdELECT; details: for ROCK2 Selectivity: selectivity for ROCK2 over ROCK1 from Kd
T1 construct: T7 phage fusion (kinase-tagged phage) or DNA tag for qPCR detection
Procedure: (§1) 1. ROCK1 and ROCK2 kinase assays: The ROCK1 and ROCK2 kinase binding affinities of compounds in this disclosure were determined by DiscoverX's KINOMEscan™ KdELECT technology (https://www.discoverx.com/kinomescan-elect-kinase-screening-and-profiling-services): Kinase-tagged T7 phage strains were prepared in an E. coli host derived from the BL21 strain. E. coli were grown to log-phase and infected with T7 phage and incubated with shaking at 32° C. until lysis. The lysates were centrifuged and filtered to remove cell debris. The remaining kinases were produced in HEK-293 cells and subsequently tagged with DNA for qPCR detection. […] The liganded beads were blocked with excess biotin and washed with blocking buffer (SeaBlock (Pierce), 1% BSA, 0.05% Tween 20, 1 mM DTT) to remove unbound ligand and to reduce nonspecific binding. […] Kds were determined using an 11-point 3-fold compound dilution series with three DMSO control points. […] The compounds were then diluted directly into the assays such that the final concentration of DMSO was 0.9%. All reactions performed in polypropylene 384-well plate. Each was a final volume of 0.02 ml. […] The kinase concentration in the eluates was measured by qPCR.

ROCK1 = biological target: T2, ROCK1 (Homo sapiens, UniProt Q13464); assay: ROCK1 kinase binding affinity, DiscoverX KINOMEscan KdELECT; details: 11-point 3-fold dilution
T2 construct: T7 phage fusion (kinase-tagged phage) or DNA tag for qPCR detection
T2 sequence (Q13464 whole entry, the tested form may be a part): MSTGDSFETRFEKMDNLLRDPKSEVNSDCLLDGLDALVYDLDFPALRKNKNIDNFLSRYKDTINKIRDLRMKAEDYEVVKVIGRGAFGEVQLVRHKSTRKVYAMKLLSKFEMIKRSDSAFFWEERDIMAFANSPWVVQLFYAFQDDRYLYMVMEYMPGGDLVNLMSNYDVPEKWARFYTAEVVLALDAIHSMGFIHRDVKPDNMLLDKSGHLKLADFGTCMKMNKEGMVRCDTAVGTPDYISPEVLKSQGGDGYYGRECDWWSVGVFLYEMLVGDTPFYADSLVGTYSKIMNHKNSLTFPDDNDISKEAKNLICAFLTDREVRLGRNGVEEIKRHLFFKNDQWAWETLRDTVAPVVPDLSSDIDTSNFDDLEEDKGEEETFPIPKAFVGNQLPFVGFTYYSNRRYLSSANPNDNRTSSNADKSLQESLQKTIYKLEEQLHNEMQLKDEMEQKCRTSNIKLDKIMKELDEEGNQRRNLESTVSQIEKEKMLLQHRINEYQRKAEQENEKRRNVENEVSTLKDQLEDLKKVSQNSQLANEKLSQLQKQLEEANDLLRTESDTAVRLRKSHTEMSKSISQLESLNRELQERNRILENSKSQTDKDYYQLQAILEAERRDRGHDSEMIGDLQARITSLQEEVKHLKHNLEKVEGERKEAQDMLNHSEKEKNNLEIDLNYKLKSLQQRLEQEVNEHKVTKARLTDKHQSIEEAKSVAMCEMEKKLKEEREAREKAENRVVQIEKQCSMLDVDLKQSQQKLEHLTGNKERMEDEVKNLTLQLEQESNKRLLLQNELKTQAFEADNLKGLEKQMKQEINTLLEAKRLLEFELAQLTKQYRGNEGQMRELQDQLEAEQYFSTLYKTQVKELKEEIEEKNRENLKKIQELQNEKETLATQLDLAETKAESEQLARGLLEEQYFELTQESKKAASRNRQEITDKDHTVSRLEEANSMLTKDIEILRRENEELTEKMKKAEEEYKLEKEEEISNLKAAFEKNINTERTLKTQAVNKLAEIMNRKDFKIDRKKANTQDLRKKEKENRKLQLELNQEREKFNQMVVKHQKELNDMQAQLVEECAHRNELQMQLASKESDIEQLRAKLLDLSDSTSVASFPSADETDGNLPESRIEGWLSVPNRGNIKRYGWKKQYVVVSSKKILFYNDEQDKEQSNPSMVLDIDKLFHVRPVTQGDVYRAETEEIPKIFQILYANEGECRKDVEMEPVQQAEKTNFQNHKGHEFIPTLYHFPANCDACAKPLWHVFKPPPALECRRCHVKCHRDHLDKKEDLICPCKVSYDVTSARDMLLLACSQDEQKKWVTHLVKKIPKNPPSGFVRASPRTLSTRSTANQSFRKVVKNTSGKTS
Procedure: as §1

[1] = KINOMEscan KdELECT, 11-point 3-fold dilution, read-out: Kd (μM) ROCK2

T1 sequence (O75116 whole entry, the tested form may be a part): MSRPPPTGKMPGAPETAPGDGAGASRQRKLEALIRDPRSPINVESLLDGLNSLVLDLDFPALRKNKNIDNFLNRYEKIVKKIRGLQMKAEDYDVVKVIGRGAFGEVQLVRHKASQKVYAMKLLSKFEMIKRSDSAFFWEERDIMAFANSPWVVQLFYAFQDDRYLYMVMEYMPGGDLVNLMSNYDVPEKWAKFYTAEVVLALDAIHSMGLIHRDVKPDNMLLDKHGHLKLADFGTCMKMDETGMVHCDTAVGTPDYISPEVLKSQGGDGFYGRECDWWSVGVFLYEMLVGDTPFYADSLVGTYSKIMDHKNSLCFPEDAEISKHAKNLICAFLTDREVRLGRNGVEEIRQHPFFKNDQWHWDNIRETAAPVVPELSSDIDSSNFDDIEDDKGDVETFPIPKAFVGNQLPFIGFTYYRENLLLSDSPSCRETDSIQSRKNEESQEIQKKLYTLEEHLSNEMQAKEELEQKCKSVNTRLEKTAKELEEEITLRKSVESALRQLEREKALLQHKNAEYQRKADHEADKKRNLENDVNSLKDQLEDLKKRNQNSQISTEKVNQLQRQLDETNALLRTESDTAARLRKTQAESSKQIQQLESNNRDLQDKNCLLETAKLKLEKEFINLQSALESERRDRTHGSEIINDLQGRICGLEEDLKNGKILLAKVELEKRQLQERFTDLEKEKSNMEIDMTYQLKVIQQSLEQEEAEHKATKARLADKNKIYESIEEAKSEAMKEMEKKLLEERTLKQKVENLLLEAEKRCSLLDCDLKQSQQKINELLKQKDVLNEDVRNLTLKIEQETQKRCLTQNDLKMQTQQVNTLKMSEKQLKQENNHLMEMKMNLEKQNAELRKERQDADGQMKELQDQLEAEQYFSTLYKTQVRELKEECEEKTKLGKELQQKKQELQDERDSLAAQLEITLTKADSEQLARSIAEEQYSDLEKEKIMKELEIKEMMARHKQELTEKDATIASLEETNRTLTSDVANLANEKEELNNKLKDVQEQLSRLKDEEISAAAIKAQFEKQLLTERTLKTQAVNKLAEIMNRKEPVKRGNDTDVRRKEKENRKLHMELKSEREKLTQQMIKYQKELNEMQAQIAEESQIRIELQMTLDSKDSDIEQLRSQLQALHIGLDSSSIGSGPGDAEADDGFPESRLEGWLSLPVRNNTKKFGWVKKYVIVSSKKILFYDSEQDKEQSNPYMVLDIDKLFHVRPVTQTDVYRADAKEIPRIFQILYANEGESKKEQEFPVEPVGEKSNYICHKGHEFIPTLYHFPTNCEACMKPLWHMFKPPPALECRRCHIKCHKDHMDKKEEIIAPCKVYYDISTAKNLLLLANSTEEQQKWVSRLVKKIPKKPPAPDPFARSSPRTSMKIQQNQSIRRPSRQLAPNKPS

Row | SMILES | Kd (ROCK2; [1]) [µM] | Kd (ROCK1) [µM] | ROCK2 Selectivity (ROCK2) | Kd (ROCK2) [µM]
1 | CC1(CNc2nccc(-c3nccc(C#Cc4ccc5[nH]ncc5c4)n3)n2)CCCO1 (stereo not drawn) [Ex. 53, 4-((1H-Indazol-5-yl)ethynyl)-N-((2-methyltetrahydrofuran-2-yl)methyl)-[2,4′-bipyrimidin]-2′-amine] | 0.01 to 0.099 | 1 to 9.9 | ** (50 to 150-fold selectivity for ROCK2) | –
2 | OC[C@H]1CC[C@@H](CNc2nccc(-c3nccc(C#Cc4ccc5[nH]ncc5c4)n3)n2)O1 [Ex. 51, ((2R,5S)-5-(((4-((1H-Indazol-5-yl)ethynyl)-[2,4′-bipyrimidin]-2′-yl)amino)methyl)tetrahydrofuran-2-yl)methanol] | < 0.01 | 0.1 to 0.99 | *** (151 to 500-fold selectivity for ROCK2) | –
3 | CC(Nc1nccc(-c2nccc(C#Cc3ccc4[nH]ncc4c3)n2)n1)C1CCCO1 (stereo not drawn) [Ex. 67, 4-((1H-Indazol-5-yl)ethynyl)-N-(1-(tetrahydrofuran-2-yl)ethyl)-[2,4′-bipyrimidin]-2′-amine] | 0.01 to 0.099 | 1 to 9.9 | * (<50-fold selectivity for ROCK2) | –
4 | O[C@@H]1CC[C@H](Nc2nccc(-c3nccc(C#Cc4ccc5[nH]ncc5c4)n3)n2)C1 [Ex. 74, (1R,3S)-3-((4-((1H-indazol-5-yl)ethynyl)-[2,4′-bipyrimidin]-2′-yl)amino)cyclopentanol] | < 0.01 | 0.1 to 0.99 | **** (>500-fold selectivity for ROCK2) | –
5 | Fc1ccc(CNc2nccc(-c3nccc(C#Cc4ccc5[nH]nc(F)c5c4)n3)n2)nc1 [Ex. 45, 4-((3-Fluoro-1H-indazol-5-yl)ethynyl)-N-((5-fluoropyridin-2-yl)methyl)-[2,4′-bipyrimidin]-2′-amine] | 0.01 to 0.099 | 10 to 100 | **** (>500-fold selectivity for ROCK2) | –
6 | C(#Cc1ccnc(-c2ccnc(NC[C@@H]3CCOC3)n2)n1)c1ccc2[nH]ncc2c1 [Ex. 58, (S)-4-((1H-Indazol-5-yl)ethynyl)-N-((tetrahydrofuran-3-yl)methyl)-[2,4′-bipyrimidin]-2′-amine] | < 0.01 | 1 to 9.9 | **** (>500-fold selectivity for ROCK2) | –
7 | C(#Cc1ccnc(-c2ccnc(NC[C@H]3CCOC3)n2)n1)c1ccc2[nH]ncc2c1 [Ex. 69, (R)-4-((1H-Indazol-5-yl)ethynyl)-N-((tetrahydrofuran-3-yl)methyl)-[2,4′-bipyrimidin]-2′-amine] | < 0.01 | 1 to 9.9 | *** (151 to 500-fold selectivity for ROCK2) | –
8 | COCCNc1nccc(-c2nccc(C#Cc3ccc4[nH]ncc4c3)n2)n1 [Ex. 75, 4-((1H-Indazol-5-yl)ethynyl)-N-(2-methoxyethyl)-[2,4′-bipyrimidin]-2′-amine] | – | 1 to 9.9 | *** (151 to 500-fold selectivity for ROCK2) | < 0.01
9 | Fc1ncccc1CNc1nccc(-c2nccc(C#Cc3ccc4[nH]nc(F)c4c3)n2)n1 [Ex. 43, 4-((3-Fluoro-1H-indazol-5-yl)ethynyl)-N-((2-fluoropyridin-3-yl)methyl)-[2,4′-bipyrimidin]-2′-amine] | 0.01 to 0.099 | 10 to 100 | *** (151 to 500-fold selectivity for ROCK2) | –
10 | O=C(CNc1nccc(-c2nccc(C#Cc3ccc4[nH]ncc4c3)n2)n1)N1CC[C@H](O)C1 [Ex. 1, (S)-2-((4-((1H-Indazol-5-yl)ethynyl)-[2,4′-bipyrimidin]-2′-yl)amino)-1-(3-hydroxypyrrolidin-1-yl)ethanone] | < 0.01 | 0.1 to 0.99 | ** (50 to 150-fold selectivity for ROCK2) | –
11 | C(#Cc1ccnc(-c2ccnc(NCC3CCCCO3)n2)n1)c1ccc2[nH]ncc2c1 (stereo not drawn) [Ex. 76, 4-((1H-Indazol-5-yl)ethynyl)-N-((tetrahydro-2H-pyran-2-yl)methyl)-[2,4′-bipyrimidin]-2′-amine] | < 0.01 | 1 to 9.9 | *** (151 to 500-fold selectivity for ROCK2) | –
12 | C(#Cc1ccnc(-c2ccnc(NCc3ccccn3)n2)n1)c1ccc2[nH]ncc2c1 [Ex. 22, 4-((1H-Indazol-5-yl)ethynyl)-N-(pyridin-2-ylmethyl)-[2,4′-bipyrimidin]-2′-amine] | 0.01 to 0.099 | 1 to 9.9 | ** (50 to 150-fold selectivity for ROCK2) | –

Now from value to compound, other results behind:

Row | Kd (ROCK2; [1]) [µM] | Kd (ROCK1) [µM] | SMILES | ROCK2 Selectivity (ROCK2) | Kd (ROCK2) [µM]
13 | 0.1 to 0.99 | 10 to 100 | FC1(F)Oc2ccc(CNc3nccc(-c4nccc(C#Cc5ccc6[nH]ncc6c5)n4)n3)cc2O1 [Ex. 13, 4-((1H-Indazol-5-yl)ethynyl)-N-((2,2-difluorobenzo[d][1,3]dioxol-5-yl)methyl)-[2,4′-bipyrimidin]-2′-amine] | ** (50 to 150-fold selectivity for ROCK2) | –
14 | 0.1 to 0.99 | 0.1 to 0.99 | Cc1n[nH]c2ccc(C#Cc3ccnc(-c4ccnc(NCc5ccc(F)cn5)n4)n3)cc12 [Ex. 71, N-((5-Fluoropyridin-2-yl)methyl)-4-((3-methyl-1H-indazol-5-yl)ethynyl)-[2,4′-bipyrimidin]-2′-amine] | * (<50-fold selectivity for ROCK2) | –
15 | < 0.01 | 0.1 to 0.99 | [2H]C([2H])(Nc1nccc(-c2nccc(C#Cc3ccc4[nH]ncc4c3)n2)n1)c1ccccn1 [Ex. 66, 4-((1H-Indazol-5-yl)ethynyl)-N-(pyridin-2-ylmethyl-d2)-[2,4′-bipyrimidin]-2′-amine] | ** (50 to 150-fold selectivity for ROCK2) | –
16 | < 0.01 | 0.1 to 0.99 | CC1(C)CCC(CNc2nccc(-c3nccc(C#Cc4ccc5[nH]ncc5c4)n3)n2)O1 (stereo not drawn) [Ex. 68, 4-((1H-Indazol-5-yl)ethynyl)-N-((5,5-dimethyltetrahydrofuran-2-yl)methyl)-[2,4′-bipyrimidin]-2′-amine] | *** (151 to 500-fold selectivity for ROCK2) | –
17 | 0.1 to 0.99 | 1 to 9.9 | O=C(O)[C@H]1CC[C@H](Nc2nccc(-c3nccc(C#Cc4ccc5[nH]ncc5c4)n3)n2)CC1 [Ex. 87, (1r,4r)-4-((4-((1H-Indazol-5-yl)ethynyl)-[2,4′-bipyrimidin]-2′-yl)amino)cyclohexanecarboxylic acid] | * (<50-fold selectivity for ROCK2) | –
18 | 0.01 to 0.099 | 10 to 100 | C(#Cc1ccnc(-c2ccnc(NCC3CCCC3)n2)n1)c1ccc2[nH]ncc2c1 [Ex. 44, 4-((1H-Indazol-5-yl)ethynyl)-N-(cyclopentylmethyl)-[2,4′-bipyrimidin]-2′-amine] | *** (151 to 500-fold selectivity for ROCK2) | –
19 | < 0.01 | 1 to 9.9 | O=C(CNc1nccc(-c2nccc(C#Cc3ccc4[nH]ncc4c3)n2)n1)N1CCOCC1 [Ex. 41, 2-((4-((1H-Indazol-5-yl)ethynyl)-[2,4′-bipyrimidin]-2′-yl)amino)-1-morpholinoethanone] | *** (151 to 500-fold selectivity for ROCK2) | –
20 | 0.01 to 0.099 | 0.1 to 0.99 | C(#Cc1ccnc(-c2ccnc(NCc3ccco3)n2)n1)c1ccc2[nH]ncc2c1 [Ex. 40, 4-((1H-Indazol-5-yl)ethynyl)-N-(furan-2-ylmethyl)-[2,4′-bipyrimidin]-2′-amine] | * (<50-fold selectivity for ROCK2) | –
21 | 10 to 100 | 10 to 100 | Cc1cnc(F)c(CNc2nccc(-c3nccc(C#Cc4ccc5[nH]ncc5c4)n3)n2)c1 [Ex. 72, 4-((1H-Indazol-5-yl)ethynyl)-N-((2-fluoro-5-methylpyridin-3-yl)methyl)-[2,4′-bipyrimidin]-2′-amine] | * (<50-fold selectivity for ROCK2) | –
